Patent US5789186A, “Marker for cerebral apoplexy” (Oriental Yeast Co., Ltd., priority 1995, dated 1998)
Like-named read-outs stand apart in the source and are kept apart here.

Legend:
Format in all cases: biochemical
[1] = target: PGAM-M (Homo sapiens, UniProt P15259); assay: Effect of potassium tetrathionate on PGAM-M standard, automatic assay method (NADH decrease rate assay)
From the text: (§1) Namely, 3-phosphoglycerate (Glycerate-3-P) is converted into 2-phosphoglycerate (Glycerate-2-P) by PGAM-B in the presence of 2,3-bisphosphoglycerate (Glycerate-2,3-P2) and the resulting product is converted into PEP and H2 O by enolase. Then, PEP is converted into pyruvate and ATP by pyruvate kinase (PK) in the presence of ADP, and lactate dehydrogenase (LDH) is acted on pyruvate thus obtained in the presence of NADH to conduct the rate assay of the decrease of NADH.
(§2) Effect of potassium tetrathionate on PGAM-B and PGAM-M was examined by an automatic assay method.
(§3) Standard preparations of the B-type and M-type isozymes (pooled serum base) were used as samples. These were diluted 1/1 to 1/8 with physiological saline to serve as samples. To the thus prepared samples were added potassium tetrathionate of various concentrations. After the reaction was carried out for 5 minutes, the quantity of the B-type and M-type PGAMs were determined by the automatic assay method.
(§4) The quantity of PGAM-B and PGAM-M were respectively determined using the reagent of Example 2 by the automatic assay method, and the results shown in Table 2 below were obtained.
(§5) Potassium tetrathionate (molecular weight of 302.4) was added to and dissolved in the PGAM activity assay reagent (R-1) so as to give a concentration of 2.25 mM (final concentration of 1.9 mM) (15 mg of potassium tetrathionate was dissolved in 22 ml of the R-1 reagent) and the M-type isozyme was inactivated to prepare a B-type PGAM activity assay reagent.
(§6) Five μl of a serum sample was combined with 250 μl of the solution of Reagent 1 (R-1) in which potassium tetrathionate was dissolved, and the mixture was allowed to stand for 5 minutes. During this period, the M-type (and MB-type) PGAM was inactivated and inhibited, and then the B-type PGAM activity was determined using Reagent 2 (R-2).
(§7) The reaction was initiated (substrate start) by adding 41 μl of Reagent 2 (R-2) because it contained glycerate-3-phosphate (substrate). The assay was started about 1.5 minutes after the addition of Reagent 2.
(§8) The assay was carried out using Hitachi 7150 model automatic analyzer with setting the assay code to RATE-A: 32-39 and the measuring temperature to 37° C. The decrease in absorbance A 340 nm associated with the decrease of NADH was measured for about 1.5 minutes. It should be noted that the assay was carried out at the secondary wavelength of 405 nm.
(§9) One unit of the enzyme (1 U: 1 unit) was defined as the amount of the enzyme that reduces 1 μmol of NADH for 1 minute at 37° C. Actual measured values were calculated by multiplying the rate assay value by a calibrating factor (K FACTOR).

[2] = target: PGAM-B (Homo sapiens, UniProt P18669); assay: Effect of potassium tetrathionate on PGAM-B standard, automatic assay method (NADH decrease rate assay); conditions: for activity at 1900 µM / activity at 3800 µM / activity at 7600 µM: 5 min, PGAM-B standard (pooled serum base), 5 min reaction, read-out: PGAM-B activity relative to 0 mM potassium tetrathionate (=100); for activity at 1900 µM: final concentration 1.9 mM; for activity at 3800 µM: final concentration 3.8 mM; for activity at 7600 µM: final concentration 7.6 mM
From the text: as §1, §2, §3, §4, §5, §6, §7, §8, §9

[3] = tested on: B-type isozyme (PGAM-BB); assay: Inhibition test using purified PGAM isozymes, B-type; conditions: treatment with tetrathionic acid as PGAM inhibitor
From the text: (§10) The assay method according to the present invention comprises treating a blood sample such as serum with a PGAM inhibitor to inactivate a specific isozyme, and then determining residual PGAM activity. For example, when tetrathionic acid is used as the PGAM inhibitor, almost 100% of M-type isozyme activity and about 50% of MB-type isozyme activity are lost, while B-type isozyme activity is hardly lost. Therefore, the B-type isozyme can be separately quantified by adding tetrathionic acid to serum to inactivate the M-type isozyme and measuring residual PGAM activity.
(§11) Incidently, according to the inhibition test using purified PGAM isozymes, only 50% of MB-type isozyme activity is lost by the treatment with tetrathionic acid, and 50% of the activity remains. However, since most of PGAM activities in normal serum and cerebral tissues are attributed to the B-type isozyme, residual activity of the MB-type isozyme can be practically disregarded in the case of diagnosis of cerebral apoplexy in a biological sample.

[4] = tested on: M-type isozyme (PGAM-MM); assay: Inhibition test using purified PGAM isozymes, M-type; conditions: treatment with tetrathionic acid as PGAM inhibitor
From the text: as §10, §11

[5] = dilution rate 1/1 (control 183 U/L)
[6] = dilution rate 1/2 (control 91 U/L)
[7] = dilution rate 1/4 (control 46 U/L)
[8] = dilution rate 1/8 (control 22 U/L)

Sequence of PGAM-B (P18669 whole entry): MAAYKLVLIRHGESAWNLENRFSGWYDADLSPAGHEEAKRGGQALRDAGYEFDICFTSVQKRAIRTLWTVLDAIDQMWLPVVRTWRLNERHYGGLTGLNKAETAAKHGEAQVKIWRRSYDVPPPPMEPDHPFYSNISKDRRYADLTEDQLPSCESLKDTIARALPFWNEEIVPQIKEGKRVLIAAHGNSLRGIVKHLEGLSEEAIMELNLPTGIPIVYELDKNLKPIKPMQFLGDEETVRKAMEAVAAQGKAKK
Sequence of PGAM-M (P15259 whole entry): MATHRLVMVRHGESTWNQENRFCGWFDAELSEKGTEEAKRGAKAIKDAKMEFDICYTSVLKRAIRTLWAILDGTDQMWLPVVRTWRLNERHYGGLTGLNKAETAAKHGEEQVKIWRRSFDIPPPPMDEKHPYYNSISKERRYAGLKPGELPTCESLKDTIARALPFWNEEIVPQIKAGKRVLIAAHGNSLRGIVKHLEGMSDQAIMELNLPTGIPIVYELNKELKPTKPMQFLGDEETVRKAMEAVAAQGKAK

SMILES	activity at 1900 µM ([1]; 5 min, PGAM-M standard (pooled serum base), dilution rate 1/8 (control 332 U/L), final concentration 1.9 mM, 5 min reaction, read-out: PGAM-M activity relative to 0 mM potassium tetrathionate (=100))	activity at 3800 µM ([1]; 5 min, PGAM-M standard (pooled serum base), dilution rate 1/8 (control 332 U/L), final concentration 3.8 mM, 5 min reaction, read-out: PGAM-M activity relative to 0 mM potassium tetrathionate (=100))	activity at 7600 µM ([1]; 5 min, PGAM-M standard (pooled serum base), dilution rate 1/8 (control 332 U/L), final concentration 7.6 mM, 5 min reaction, read-out: PGAM-M activity relative to 0 mM potassium tetrathionate (=100))	Effect on the M-type isozyme (in words) ([1]; summary of Table 2)	activity at 1900 µM [2, 5]	activity at 3800 µM [2, 5]	activity at 7600 µM [2, 5]	activity at 1900 µM [2, 6]	activity at 3800 µM [2, 6]	activity at 7600 µM [2, 6]	activity at 1900 µM [2, 7]	activity at 3800 µM [2, 7]	activity at 7600 µM [2, 7]	activity at 1900 µM [2, 8]	activity at 3800 µM [2, 8]	activity at 7600 µM [2, 8]	Effect on the B-type isozyme (in words) ([2]; summary of Table 2)	B-type isozyme activity lost (in words) [3]	M-type isozyme activity lost [4]
O=S(=O)([O-])SSS(=O)(=O)[O-].[K+].[K+] [potassium tetrathionate]	0%	0%	0%	specifically inactivated	98%	92%	81%	98%	91%	80%	97%	86%	59%	93%	93%	75%	no effect was observed	–	–
O=S(=O)(O)SSS(=O)(=O)O [tetrathionic acid]	–	–	–	–	–	–	–	–	–	–	–	–	–	–	–	–	–	hardly lost	~100%
